# Experimental data taken from patent publication US6586439B2, “Pharmaceutically active compounds” (Pfizer Inc., priority 1999, dated 2003).
# Tested on: cGMP PDE5
# Assay: In vitro PDE inhibitory activity against cGMP PDE5 (batch method or scintillation proximity assay)
# Format: biochemical, human or rabbit
# Method: In vitro PDE inhibitory activities against cyclic guanosine 3′,5′-monophosphate (cGMP) and cyclic adenosine 3′,5′-monophosphate (cAMP) phosphodiesterases were determined by measurement of their IC50 values (the concentration of compound required for 50% inhibition of enzyme activity).
# The required PDE enzymes were isolated from a variety of sources, including human corpus cavernosum, human and rabbit platelets, human cardiac ventricle, human skeletal muscle and bovine retina, essentially by the method of W. J. Thompson and M. M. Appleman (Biochem., 1971, 10, 311). In particular, the cGMP-specific PDE (PDE5) and the cGMP-inhibited cAMP PDE (PDE3) were obtained from human corpus cavernosum tissue, human platelets or rabbit platelets; the cGMP-stimulated PDE (PDE2) was obtained from human corpus cavernosum; the calcium/calmodulin (Ca/CAM)-dependent PDE (PDE1) from human cardiac ventricle; the cAMP-specific PDE (PDE4) from human skeletal muscle; and the photoreceptor PDE (PDE6) from bovine retina. Phosphodiesterases 7-11 were generated from full length human recombinant clones transfected into SF9 cells.
# Assays were performed either using a modification of the “batch” method of W. J. Thompson et al. (Biochem., 1979, 18, 5228) or using a scintillation proximity assay for the direct detection of AMP/GMP using a modification of the protocol described by Amersham plc under product code TRKQ7090/7100. In summary, the effect of PDE inhibitors was investigated by assaying a fixed amount of enzyme in the presence of varying inhibitor concentrations and low substrate, (cGMP or cAMP in a 3:1 ratio unlabelled to [^3H]-labeled at a conc ˜1/3 Km) such that IC50 ≅Ki. The final assay volume was made up to 100 μl with assay buffer [20 mM Tris-HCl pH 7.4, 5 mM MgCl2, 1 mg/ml bovine serum albumin]. Reactions were initiated with enzyme, incubated for 30-60 min at 30° C. to give <30% substrate turnover and terminated with 50 μl yttrium silicate SPA beads (containing 3 mM of the respective unlabelled cyclic nucleotide for PDEs 9 and 11). Plates were re-sealed and shaken for 20 min, after which the beads were allowed to settle for 30 min in the dark and then counted on a TopCount plate reader (Packard, Meriden, Conn.) Radioactivity units were converted to % activity of an uninhibited control (100%), plotted against inhibitor concentration and inhibitor IC50 values obtained using the ‘Fit Curve’ Microsoft Excel extension.
SMILES,Percentage inhibition of PDE 5 (Concentration 100 nM),Percentage inhibition of PDE 5 (Concentration 10 nM)
"CCCOc1ccc(S(=O)(=O)N2CCN(CC)CC2)cc1-c1nc2[nH]cnc2c(=O)[nH]1 [Example 1, 2-[5-(4-Ethylpiperazin-1-ylsulfonyl)-2-n-propoxyphenyl]-9H-purin-6-one]",47,–
"CCCOc1ccc(S(=O)(=O)N2CCN(CC)CC2)cc1-c1nc2c(ncn2-c2ccc(N)cc2)c(=O)[nH]1 [Example 4, 9-(4-Aminophenyl)-2-[5-(4-ethylpiperazin-1-ylsulfonyl)-2-n-propoxy-phenyl]purin-6-one]",–,74.1
"CCCOc1ccc(S(=O)(=O)N2CCN(C)CC2)cc1-c1nc2[nH]c(-c3cccnc3)nc2c(=O)[nH]1 [Example 5, 2-[5-(4-Methylpiperazin-1-ylsulfonyl)-2-n-propoxyphenyl]-8-(pyridin-3-yl)-9H-purin-6-one]",48,–
"CCCCOc1ncc(S(=O)(=O)N2CCN(CC)CC2)cc1-c1nc2c(nc(Cc3ccccc3)n2CCC)c(=O)[nH]1 [Example 7, 8-Benzyl-2-[2-n-butoxy-5-(4-ethylpiperazin-1-ylsulfonyl)pyridin-3-yl]-9-n-propylpurin-6-one]",–,80.3
"CCCOc1ccc(S(=O)(=O)N2CCN(c3ccccn3)CC2)cc1-c1nc2c(ncn2CCC)c(=O)[nH]1 [Example 9, 2-(2-n-Propoxy-5-[4-{pyridin-2-yl}piperazin-1-ylsulfonyl]phenyl)-9-n-propylpurin-6-one]",–,100
